From patent US20140343050A1, “PRODRUGS OF D-ISOGLUTAMYL-[D/L]-TRYPTOPHAN” (APTOEX TECHNOLOGIES, INC., priority 2011, published 2014)

Tests used:
[1] = Pharmacokinetic study in rats, oral bioavailability (plasma Apo805); type: in vivo; settings: male Sprague-Dawley rats, oral 5 mg/kg, in words
Protocol: Groups of five male Sprague-Dawley rats weighing 250 to 300 g were utilized per dosing group. One day prior to dosing, venous and arterial catheters (made of 20 cm long polyurethane coiled tubing, and filled with 100 units/mL heparinized saline) were implanted into the jugular vein and carotid artery of each rat. Rats were fasted overnight prior to oral dosing and fed approximately 2 hours post-dosing. All dosing and blood sampling was performed on fully conscious rats. Tested compounds were administered either by oral gavage as solutions in water, or by intravenous injection (Apo805K1 only) as solution in 0.9% sodium chloride, final pH 7.0, at doses equivalent to 5 mg/kg (per Apo805 content). Blood (0.3 mL) was sampled from each animal from the carotid artery for up to 30 hours post-dosing, each sampling followed by an equivalent naive-blood replacement. […]
A Sciex API 365 LC/MS/MS […] equipped with Ionics EP10+ and HSID, was used, A chiral column (Supelco-Astec CHIROBIOTIC™ TAG), 100×2.1 mm, 5 μm was used at ambient temperature. […] Samples were analysed for the concentration of Apo805 (thymodepressin).
Non-compartmental analysis was performed using WinNonlin 52 software, on individual animal data. Bioavailability was calculated as a ratio of AUCINF—D after oral dosing of test compound to AUCINF—D after IV dosing of Apo805K1. […]

human hepatocytes = assay: Biotransformation to Apo805 in human hepatocytes; settings: for Half-life for bioconversion to Apo805 (h), Human hepatocytes: 100 μM prodrug, pooled cryopreserved human hepatocytes
Protocol: LiverPool® cryopreserved human hepatocytes (pooled from 10 male donors) was obtained from Celsis In Vitro Technologies. The hepatocytes were stored in liquid nitrogen until used. Just before the assay, the hepatocytes were quickly thawed at 37° C. and centrifuged at 100×g for 10 min. The media was removed and cells were re-suspended in PBS at a density of 4×10^6 cells/mL. […] After 10, 20, 60, 120 and 240 min of incubation, the reaction was quenched by adding an equal volume of 5% (w/v) TCA. The “time 0” sample was generated by adding TCA before the test compound. After brief vortexing and 10-min incubation on ice, samples were centrifuged (16,000×g, 10 min) and the supernatants were analyzed by HPLC with UV detection.
(§1) HPLC analysis was done using an Agilent 1100 series HPLC system consisting of a programmable multi-channel pump, auto-injector, vacuum degasser and HP detector controlled by Agilent HPLC218 Chem Station Rev.A.09.03 software for data acquisition and analysis. A gradient method was used for the determination of all pro-drugs and their hydrolysis products including Apo805 on an Agilent Eclipse XDB, C18 column (part #963967-902, 150×4.6 mm, 3.5 μm) with the following chromatographic conditions: • Temperature: Ambient • Mobile phase: A=Aqueous phase: 10 mM Tris-HCl, 2 mM EDTA, pH 7.4 B=Organic phase: Acetonitrile • Gradient method: Time: 0 min 5% B, 25 min 50% B, 35 min 80% B, 45 min 5% B, 50 min 5% B. • Mobile phase flow rate: 1.0 mL/min • Injection volume: 50 μL • Data acquisition time: 30 min • Detection wavelength: 280 nm; 4 nm bandwidth, ref. 360 nm, • 4 nm bandwidth The chromatograms at λ=280 nm were analyzed. Peak area (mAU*s) was used for quantitation of pro-drugs, intermediates and thymodepressin (Apo805).

[2] = Stability / bioconversion to Apo805 in human blood; settings: 100 μM prodrug, pooled human blood, 37° C.
From the text: as §1
Blood was collected from healthy volunteers, both male and female, in Becton Dickinson ACD Vacutainer™ containing ACD solution A (22.0 g/L trisodium citrate, 8.0 g/L citric acid, 24.5 g/L dextrose). […] After 10-min incubation on ice, samples were centrifuged (16,000×g, 10 min) and the supernatants were analyzed by HPLC.

Row | oral bioavailability in rats [1] | Half-life for bioconversion to Apo805 (h), Human hepatocytes (human hepatocytes) | Half-life for bioconversion to Apo805 (h), Human blood [2] | Structure (SMILES) | other results
1 | show oral bioavailability | – | – | CC(C)(C)C(=O)OCOC(=O)[C@@H](Cc1c[nH]c2ccccc12)NC(=O)CC[C@@H](N)C(=O)O [Apo839, H-D-Glu(D-Trp-OCH2O—CO—C(CH3)3)—OH] | –
2 | – | 4.6 h | 5.9 h | N[C@H](CCC(=O)N[C@@H](Cc1c[nH]c2ccccc12)C(=O)O)C(=O)OCCC(F)(F)F [Apo886] | –
3 | – | > 2.0 h | >24 h | CCOC(=O)[C@@H](Cc1c[nH]c2ccccc12)NC(=O)CC[C@@H](N)C(=O)O [Apo835, H-D-Glu(D-Trp-OEt)-OH, reference compound] | percent conversion to Apo805 within indicated time, Human hepatocytes (human hepatocytes; in 2 h): 11%
4 | show oral bioavailability | – | – | CC(OC(=O)OC1CCCCC1)OC(=O)[C@@H](Cc1c[nH]c2ccccc12)NC(=O)CC[C@@H](N)C(=O)O (stereo partly drawn) [Apo843, H-D-Glu(D-Trp-O—CH(CH3)—O—CO—O-cyclohexyl)-OH] | –
5 | – | – | – | CN(C)C(=O)COC(=O)[C@@H](Cc1c[nH]c2ccccc12)NC(=O)CC[C@@H](N)C(=O)O [Apo893, H-D-Glu(D-Trp-O—CH2CO—N(CH3)2)—OH] | biotransformation to thymodepressin (Apo805) in human hepatocytes (human hepatocytes; in words): not readily converted to thymodepressin
